Publication PMC3674352 (Cell Death & Disease, 2013)

What was measured:
Assay type in all cases: cell-based
Bcl-xL [1] = target: T1, Bcl-xL (Homo sapiens, UniProt Q07817); assay: growth and ATP content of yeast co-expressing Bax and Bcl-xL
Bcl-2 = Bcl-2 (Homo sapiens, UniProt P10415); assay: growth of yeast co-expressing Bax and Bcl-2
Bcl-xL [2] = target: T1, Bcl-xL; assay: growth of yeast co-expressing Bax and Bcl-xL

T1 sequence (Q07812 whole entry): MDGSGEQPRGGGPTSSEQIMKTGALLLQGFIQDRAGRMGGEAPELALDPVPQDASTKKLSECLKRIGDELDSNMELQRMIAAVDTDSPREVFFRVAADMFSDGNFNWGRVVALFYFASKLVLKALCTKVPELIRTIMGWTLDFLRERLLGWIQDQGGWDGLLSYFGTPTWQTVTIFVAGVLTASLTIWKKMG
T1 sequence (Q07817 whole entry): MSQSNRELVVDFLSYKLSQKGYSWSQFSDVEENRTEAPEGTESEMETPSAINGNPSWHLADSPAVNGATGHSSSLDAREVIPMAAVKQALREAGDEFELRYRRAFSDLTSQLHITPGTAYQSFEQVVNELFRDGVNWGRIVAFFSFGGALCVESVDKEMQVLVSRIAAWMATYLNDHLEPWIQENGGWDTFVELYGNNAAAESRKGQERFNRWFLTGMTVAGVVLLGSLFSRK
Chain of Bcl-2 (Q07812 whole entry): as the sequence (Q07812 whole entry) above
Chain of Bcl-2 (P10415 whole entry): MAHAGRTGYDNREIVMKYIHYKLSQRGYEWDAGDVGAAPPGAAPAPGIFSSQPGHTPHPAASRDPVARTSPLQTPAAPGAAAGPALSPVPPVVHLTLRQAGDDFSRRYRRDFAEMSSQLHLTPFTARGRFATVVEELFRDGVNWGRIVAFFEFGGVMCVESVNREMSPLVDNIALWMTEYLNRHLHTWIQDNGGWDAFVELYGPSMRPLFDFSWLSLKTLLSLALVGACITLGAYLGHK

Row | Structure (SMILES) | IC50 (Bcl-xL [1]) | IC50 (Bcl-2) | IC50 (Bcl-xL [2])
1 | CN(C)CC[C@H](CSc1ccccc1)Nc1ccc(S(=O)(=O)NC(=O)c2ccc(N3CCN(Cc4ccccc4-c4ccc(Cl)cc4)CC3)cc2)cc1[N+](=O)[O-] [ABT-737] | ~ just under 1 μM | – | –
2 | CC1(C)CCC(c2ccc(Cl)cc2)=C(CN2CCN(c3ccc(C(=O)NS(=O)(=O)c4ccc(N[C@H](CCN5CCOCC5)CSc5ccccc5)c(S(=O)(=O)C(F)(F)F)c4)cc3)CC2)C1 [ABT-263] | – | ~ just over 1 μM | ~ just under 1 μM
